The results in this text go back to patent US11407736B2 (priority 2019, dated 2022).

Where two headings read alike, the source gives them in different places.

The subject of test [1] is U937 cells. The experiment in a line: U937 cell necroptosis assay (TNFa + zVAD, CellTiter-Glo). It is filed as cell-based, human. To be noted: Homo sapiens, U-937, U937 cells, TNFa + zVAD; read-out: U937 Zvad TNF CTG Recovery, U937, TNFa + zVAD (IC50). The protocol:
(§1) In this example, U937 and L929 cells were exposed to compounds of the present disclosure and a cell necroptosis assay was conducted to evaluate the compounds' activity against human RIP1 and murine RIP1.
(§2) U937 and L929 cells were obtained from the American Type Culture Collection (Manassa, Va., USA). Both cells were maintained in logarithmic growth phase in complete RPMI 1640 media (Sigma, ST Louis, Mo., USA) supplemented with 10% fetal bovine serum (Sigma, ST Louis, Mo., USA) at 37° C. with 5% CO2. For necroptosis assay, L929 cells were plated for 18 h in 100 μL/well medium at 10K cells/well in Costar 96-well black clear-bottom plates (Fisher Scientific, Hampton, N.H., USA); U937 cells were plated on the day of the assay in 50 4/well medium containing 60 uM zVAD-fink (Lonza, Basel, Switzerland) at 50K cells/well. Medium from L929 cells were removed from the 96-well plates and replaced with 50 μL/well new medium containing 40 uM zVAD-fink. Each compound of the present disclosure evaluated in this example was serially diluted in DMSO from 2.5 mM in 4-fold dilutions, and then diluted 1:125 in complete medium. 50 μL/well 2× of the compound was then added to the cells in the plates. The cells were pre-incubated with the compound for 1 hour at 37° C. with 5% CO2 and before addition of 10 μL/well 1 1×TNFa (Peprotech, Rocky Hill, N.J., USA) to give a final concentration of 2 ng/mL for TNFa. The relative amount of necroptosis cells was determined by luminescent using a Wallac Victor2 Luminometer (PerkinElmer, Waltham, Mass., USA) and a CellTiter-Glo® Luminescent Cell Viability Reagent Assay (Promega, Madison, Wis., USA) added per manufacturer instructions after 18 hours of TNFa stimulation at 37° C. with 5% CO2. This example establishes that embodiments of the compounds described herein have unexpectedly potent activity against human RIP1 and murine RIP1, which allows their assessment in in vivo mouse models of disease.
For orientation: ATP-based viability assays read luminescence as a measure of living cells.

Test [2] relates to L929 cells. As to the kind of experiment: L929 cell necroptosis assay (TNFa + zVAD, CellTiter-Glo). Type of test: cell-based, murine. The settings on record: Mus musculus, TNFa + zVAD, read-out: L929-CTG-recovery, L929, TNFa + zVAD (IC50). As to the method: as §1
as §2, with “The cells were pre-incubated with the compound for 1 hour at 37° C. with 5% CO2 and before addition of 10 μL/well 1 1×TNFa (Peprotech, Rocky Hill, N.J., USA) to give a final concentration of 2 ng/mL for TNFa.” left out, “CO2.” for “CO2. This example establishes that embodiments of the compounds described herein have unexpectedly potent activity against human RIP1 and murine RIP1, which allows their assessment in in vivo mouse models of disease.”

Consider `[2H]c1c([2H])c([2H])c(Oc2ccnc(C(=O)N[C@H]3COc4ccc(C#CC5(O)COC5)cc4N(C)C3=O)c2)c([2H])c1[2H]` [Compound I-190, (S)—N-(7-((3-hydroxyoxetan-3-yl)ethynyl)-5-methyl-4-oxo-2,3,4,5-tetrahydrobenzo[b][1,4]oxazepin-3-yl)-4-(phenoxy-d5)picolinamide], for which, in test [1], the IC50 was 0.6 nM.
In the case of `CN1C(=O)[C@@H](NC(=O)c2cc(Oc3ccccc3)ccn2)COc2ccc(C#CC(C)(C)COP(=O)(O)O)cc21` [Compound I-173, (S)-2,2-dimethyl-4-(5-methyl-4-oxo-3-(4-phenoxypicolinamido)-2,3,4,5-tetrahydrobenzo[b][1,4]oxazepin-7-yl)but-3-yn-1-yl dihydrogen phosphate], the IC50 in test [2] (L929, L929 cells) came out at 2860 nM; in test [1] it was 48.5 nM.
For `CN1C(=O)[C@@H](NC(=O)c2n[nH]c(Cc3ccccc3)n2)COc2ccc(/C=C(\Cl)C(C)(C)O)cc21` [Compound I-94, (S,Z)-5-benzyl-N-(7-(2-chloro-3-hydroxy-3-methylbut-1-en-1-yl)-5-methyl-4-oxo-2,3,4,5-tetrahydrobenzo[b][1,4]oxazepin-3-yl)-1H-1,2,4-triazole-3-carboxamide], the figures for the IC50 in test [2] (L929 cells) and in test [1] were 4.6 nM and 22 nM, respectively.
With `CN1C(=O)[C@@H](NC(=O)c2cc(Oc3ccccc3)ccn2)COc2ccc(C#CC(C)(C)N3CCS(=O)(=O)CC3)cc21` [Compound I-211, (S)—N-(7-(3-(1,1-Dioxidothiomorpholino)-3-methylbut-1-yn-1-yl)-5-methyl-4-oxo-2,3,4,5-tetrahydrobenzo[b][1,4]oxazepin-3-yl)-4-phenoxypicolinamide], the IC50 in test [2] (L929, L929 cells) is 44.8 nM; in test [1] it was 1.1 nM.
In the case of `CC(=O)N1CC(O)(C#Cc2ccc3c(c2)N(C)C(=O)[C@@H](NC(=O)c2cc(Oc4ccccc4)ccn2)CO3)C1` [Compound I-197, (S)—N-(7-((1-acetyl-3-hydroxyazetidin-3-yl)ethynyl)-5-methyl-4-oxo-2,3,4,5-tetrahydrobenzo[b][1,4]oxazepin-3-yl)-4-phenoxypicolinamide], the IC50 in test [2] (L929, L929 cells) stood at 70.6 nM; in test [1], 0.7 nM.
For `[2H]C([2H])([2H])C(O)(C#Cc1ccc2c(c1)N(C)C(=O)[C@@H](NC(=O)c1n[nH]c(Cc3ccccc3)n1)CO2)C([2H])([2H])[2H]` [Compound I-69, (S)-5-benzyl-N-(7-(3-hydroxy-3-(methyl-d3)but-1-yn-1-yl-4,4,4-d3)-5-methyl-4-oxo-2,3,4,5-tetrahydrobenzo[b][1,4]oxazepin-3-yl)-1H-1,2,4-triazole-3-carboxamide], the IC50 stood at 0.9 nM in test [2] (L929, L929 cells) and 2.2 nM in test [1].
On the same counts, the results for `C[C@H](N)C(=O)OCC(C)(C)C#Cc1ccc2c(c1)N(C)C(=O)[C@@H](NC(=O)c1cc(Oc3ccc(F)cc3)ccn1)CO2` [Compound I-171, 4-((S)-3-(4-(4-fluorophenoxy)picolinamido)-5-methyl-4-oxo-2,3,4,5-tetrahydrobenzo[b][1,4]oxazepin-7-yl)-2,2-dimethylbut-3-yn-1-yl L-alaninate] are 394 nM and 6.4 nM.
For the molecule `CN1C(=O)[C@@H](NC(=O)c2cc(Oc3ccccc3)ccn2)COc2ccc(C#CC3(F)CN(CC(F)(F)F)C3)cc21` [Compound I-168, (S)—N-(7-((3-fluoro-1-(2,2,2-trifluoroethyl)azetidin-3-yl)ethynyl)-5-methyl-4-oxo-2,3,4,5-tetrahydrobenzo[b][1,4]oxazepin-3-yl)-4-phenoxypicolinamide], the IC50 turned out to be 103 nM in test [2] (L929, L929 cells) and 0.9 nM in test [1].
For the molecule `CN1C(=O)[C@@H](NC(=O)c2cc(Oc3ccc(F)cc3)ccn2)COc2ccc(C#CC(C)(C)COP(=O)(O)O)cc21` [Compound I-174, (S)-4-(3-(4-(4-fluorophenoxy)picolinamido)-5-methyl-4-oxo-2,3,4,5-tetrahydrobenzo[b][1,4]oxazepin-7-yl)-2,2-dimethylbut-3-yn-1-yl dihydrogen phosphate], the IC50 in test [2] (L929, L929 cells) is 16500 nM; in test [1], 438 nM.
Consider `CN1C(=O)[C@@H](NC(=O)c2cc(Oc3ccccc3)ccn2)COc2ccc(C#CC3(O)CN(CC4CC4)C3)cc21` [Compound I-196, (S)—N-(7-((1-(cyclopropylmethyl)-3-hydroxyazetidin-3-yl)ethynyl)-5-methyl-4-oxo-2,3,4,5-tetrahydrobenzo[b][1,4]oxazepin-3-yl)-4-phenoxypicolinamide], for which the IC50 in test [2] (L929, L929 cells) stood at 201 nM; in test [1], 3.3 nM.
With `[2H]C([2H])([2H])C(O)(C#Cc1ccc2c(c1)N(C)C(=O)[C@@H](NC(=O)c1cc(Oc3ccccc3)ccn1)CO2)C([2H])([2H])[2H]` [Compound I-68, (S)—N-(7-(3-hydroxy-3-(methyl-d3)but-1-yn-1-yl-4,4,4-d3)-5-methyl-4-oxo-2,3,4,5-tetrahydrobenzo[b][1,4]oxazepin-3-yl)-4-phenoxypicolinamide], the IC50 in test [2] (L929, L929 cells) was 0.3 nM; in test [1], 0.7 nM.
On the same counts, the results for `CCNC(=O)N1CC(O)(C#Cc2ccc3c(c2)N(C)C(=O)[C@@H](NC(=O)c2cc(Oc4ccccc4)ccn2)CO3)C1` [Compound I-198, (S)—N-(7-((1-(ethylcarbamoyl)-3-hydroxyazetidin-3-yl)ethynyl)-5-methyl-4-oxo-2,3,4,5-tetrahydrobenzo[b][1,4]oxazepin-3-yl)-4-phenoxypicolinamide] are 39.1 nM and 0.9 nM.
For the molecule `CN1C(=O)[C@@H](NC(=O)c2cc(Oc3ccccc3)ccn2)COc2ccc(C#CC3(O)COC3)cc21` [Compound I-110, (S)—N-(7-((3-hydroxyoxetan-3-yl)ethynyl)-5-methyl-4-oxo-2,3,4,5-tetrahydrobenzo[b][1,4]oxazepin-3-yl)-4-phenoxypicolinamide], the half-maximal inhibitory concentration (IC50) in test [2] (L929, L929 cells) worked out at 18.8 nM; in test [1] it was 0.4 nM.
As for `CN1C(=O)[C@@H](NC(=O)c2cc(Oc3ccccc3)ccn2)COc2ccc(C#CC3(F)CN(CC4CC4)C3)cc21` [Compound I-169, (S)—N-(7-((1-(cyclopropylmethyl)-3-fluoroazetidin-3-yl)ethynyl)-5-methyl-4-oxo-2,3,4,5-tetrahydrobenzo[b][1,4]oxazepin-3-yl)-4-phenoxypicolinamide], the IC50 in test [2] (L929, L929 cells) was 148 nM; in test [1], 2.2 nM.
For the molecule `CN1C(=O)[C@H](NC(=O)c2cc(Oc3ccccc3)ccn2)COc2ccc(C#CC(C)(C)O)cc21` [Compound I-113, (R)—N-(7-(3-hydroxy-3-methylbut-1-yn-1-yl)-5-methyl-4-oxo-2,3,4,5-tetrahydrobenzo[b][1,4]oxazepin-3-yl)-4-phenoxypicolinamide], the IC50 in test [2] (L929, L929 cells) amounted to 2340 nM; in test [1], 31.5 nM.
For the molecule `CC(C)N1CC(F)(C#Cc2ccc3c(c2)N(C)C(=O)[C@@H](NC(=O)c2cc(Oc4ccccc4)ccn2)CO3)C1` [Compound I-166, (S)—N-(7-((3-fluoro-1-isopropylazetidin-3-yl)ethynyl)-5-methyl-4-oxo-2,3,4,5-tetrahydrobenzo[b][1,4]oxazepin-3-yl)-4-phenoxypicolinamide], the concentration for half-maximal inhibition (IC50) came out at 27.7 nM in test [2] (L929, L929 cells) and 1 nM in test [1].
Turning to `CC(C)[C@H](N)C(=O)OCC(C)(C)C#Cc1ccc2c(c1)N(C)C(=O)[C@@H](NC(=O)c1cc(Oc3ccc(F)cc3)ccn1)CO2` [Compound I-172, 4-((S)-3-(4-(4-fluorophenoxy)picolinamido)-5-methyl-4-oxo-2,3,4,5-tetrahydrobenzo[b][1,4]oxazepin-7-yl)-2,2-dimethylbut-3-yn-1-yl L-valinate], the IC50 worked out at 850 nM in test [2] (L929, L929 cells) and 22.1 nM in test [1].

The IC50 is the point on the concentration scale where inhibition reaches its midpoint.
